AC50 data for 26 compounds are collected here from ChEMBL document CHEMBL5291721, “A preclinical secondary pharmacology resource illuminates target-adverse drug reaction associations of marketed drugs” (Nat Commun, 2023).

Where only a bound is given, the exact number is not on record here.

Among the targets are Vasopressin V2 receptor (Homo sapiens, UniProt P30518); Histamine H1 receptor (Homo sapiens, UniProt P35367); D(3) dopamine receptor (Homo sapiens, UniProt P35462).
Assay [1] addresses T1, Alpha-1A adrenergic receptor (Homo sapiens, UniProt P35348).
T1 sequence (P35348 whole entry): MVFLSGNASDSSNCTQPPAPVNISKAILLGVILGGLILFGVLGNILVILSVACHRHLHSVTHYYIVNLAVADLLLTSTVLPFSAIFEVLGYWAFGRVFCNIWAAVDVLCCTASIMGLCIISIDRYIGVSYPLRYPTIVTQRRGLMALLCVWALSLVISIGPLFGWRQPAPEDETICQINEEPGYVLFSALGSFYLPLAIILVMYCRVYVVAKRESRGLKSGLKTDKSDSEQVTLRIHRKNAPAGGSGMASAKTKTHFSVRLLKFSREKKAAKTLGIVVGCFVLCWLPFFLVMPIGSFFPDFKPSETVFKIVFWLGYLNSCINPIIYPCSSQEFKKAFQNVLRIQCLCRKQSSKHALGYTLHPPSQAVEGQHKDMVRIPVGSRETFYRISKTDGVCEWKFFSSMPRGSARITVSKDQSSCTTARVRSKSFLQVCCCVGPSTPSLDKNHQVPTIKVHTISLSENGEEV
Type of assay: functional, cell-based.

Another assay addresses Histamine H2 receptor (Homo sapiens, UniProt P25021). Format: functional, cell-based.
In assay [2] the target is T2, Neuropeptide Y receptor type 1 (Homo sapiens, UniProt P25929).
T2 sequence (P25929 whole entry): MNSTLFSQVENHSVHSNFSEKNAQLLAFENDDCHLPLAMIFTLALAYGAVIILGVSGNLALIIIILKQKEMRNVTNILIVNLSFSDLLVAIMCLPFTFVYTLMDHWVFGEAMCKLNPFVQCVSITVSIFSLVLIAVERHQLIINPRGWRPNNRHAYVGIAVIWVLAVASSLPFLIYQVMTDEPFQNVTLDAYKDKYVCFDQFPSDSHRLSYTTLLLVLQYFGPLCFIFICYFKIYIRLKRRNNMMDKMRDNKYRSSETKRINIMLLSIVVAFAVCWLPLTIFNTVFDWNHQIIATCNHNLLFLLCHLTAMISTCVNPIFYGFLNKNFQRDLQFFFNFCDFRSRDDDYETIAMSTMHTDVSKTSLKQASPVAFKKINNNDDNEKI

Another assay addresses T3, Progesterone receptor (Homo sapiens, UniProt P06401).
T3 sequence (P06401 whole entry): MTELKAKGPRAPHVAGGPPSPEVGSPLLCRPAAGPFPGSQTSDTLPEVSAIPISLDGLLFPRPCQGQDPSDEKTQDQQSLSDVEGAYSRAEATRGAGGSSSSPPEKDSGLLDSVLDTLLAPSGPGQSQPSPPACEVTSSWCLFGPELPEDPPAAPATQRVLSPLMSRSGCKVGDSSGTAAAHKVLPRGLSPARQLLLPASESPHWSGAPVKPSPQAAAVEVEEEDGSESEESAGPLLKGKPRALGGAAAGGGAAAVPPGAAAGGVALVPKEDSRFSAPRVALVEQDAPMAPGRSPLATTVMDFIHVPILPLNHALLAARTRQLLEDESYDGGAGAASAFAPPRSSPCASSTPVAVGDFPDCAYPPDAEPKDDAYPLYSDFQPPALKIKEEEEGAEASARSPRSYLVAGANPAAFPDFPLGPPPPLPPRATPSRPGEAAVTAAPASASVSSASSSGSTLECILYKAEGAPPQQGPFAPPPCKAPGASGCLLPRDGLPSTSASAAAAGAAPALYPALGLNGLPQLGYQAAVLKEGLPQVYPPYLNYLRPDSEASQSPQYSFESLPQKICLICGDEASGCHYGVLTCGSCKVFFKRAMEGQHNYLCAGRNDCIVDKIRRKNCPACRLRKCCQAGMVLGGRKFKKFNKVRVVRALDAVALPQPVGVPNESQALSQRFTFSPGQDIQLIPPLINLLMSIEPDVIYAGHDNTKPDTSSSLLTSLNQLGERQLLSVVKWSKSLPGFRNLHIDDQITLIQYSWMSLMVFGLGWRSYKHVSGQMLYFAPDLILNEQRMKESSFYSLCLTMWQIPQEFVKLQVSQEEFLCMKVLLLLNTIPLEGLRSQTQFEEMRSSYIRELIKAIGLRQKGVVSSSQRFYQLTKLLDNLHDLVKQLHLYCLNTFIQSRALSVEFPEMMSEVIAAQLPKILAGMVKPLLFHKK
Format: functional.

Assay [3] addresses Sodium-dependent serotonin transporter (Homo sapiens, UniProt P31645).
Another assay deals with Prothrombin (Homo sapiens, UniProt P00734). Type of assay: functional.
Assay [4] concerns the target Sodium-dependent noradrenaline transporter (Homo sapiens, UniProt P23975).
The target of assay [5] is cGMP-inhibited 3',5'-cyclic phosphodiesterase 3A (Homo sapiens, UniProt Q14432). Type of assay: functional.
In assay [6] the target is Prostaglandin G/H synthase 1 (Homo sapiens, UniProt P23219). Type of assay: functional.
Also: assay procedure not described here.

Prostaglandin G/H synthase 1, sequence (P23219 whole entry): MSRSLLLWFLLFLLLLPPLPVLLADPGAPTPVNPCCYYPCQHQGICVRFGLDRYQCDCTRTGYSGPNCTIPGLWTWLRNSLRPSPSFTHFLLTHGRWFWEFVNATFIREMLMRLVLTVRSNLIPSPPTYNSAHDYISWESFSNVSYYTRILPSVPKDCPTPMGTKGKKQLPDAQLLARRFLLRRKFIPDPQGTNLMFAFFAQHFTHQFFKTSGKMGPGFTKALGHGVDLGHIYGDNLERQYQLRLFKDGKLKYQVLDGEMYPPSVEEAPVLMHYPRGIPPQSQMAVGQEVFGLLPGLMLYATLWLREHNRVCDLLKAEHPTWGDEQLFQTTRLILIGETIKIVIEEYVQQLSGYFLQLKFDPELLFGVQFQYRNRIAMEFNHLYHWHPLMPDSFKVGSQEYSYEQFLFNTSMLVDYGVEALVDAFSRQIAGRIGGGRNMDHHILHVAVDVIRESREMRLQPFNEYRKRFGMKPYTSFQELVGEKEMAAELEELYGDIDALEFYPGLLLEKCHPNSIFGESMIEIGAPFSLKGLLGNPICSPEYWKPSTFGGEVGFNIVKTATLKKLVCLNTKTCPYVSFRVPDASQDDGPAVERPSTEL
D(3) dopamine receptor, sequence (P35462 whole entry): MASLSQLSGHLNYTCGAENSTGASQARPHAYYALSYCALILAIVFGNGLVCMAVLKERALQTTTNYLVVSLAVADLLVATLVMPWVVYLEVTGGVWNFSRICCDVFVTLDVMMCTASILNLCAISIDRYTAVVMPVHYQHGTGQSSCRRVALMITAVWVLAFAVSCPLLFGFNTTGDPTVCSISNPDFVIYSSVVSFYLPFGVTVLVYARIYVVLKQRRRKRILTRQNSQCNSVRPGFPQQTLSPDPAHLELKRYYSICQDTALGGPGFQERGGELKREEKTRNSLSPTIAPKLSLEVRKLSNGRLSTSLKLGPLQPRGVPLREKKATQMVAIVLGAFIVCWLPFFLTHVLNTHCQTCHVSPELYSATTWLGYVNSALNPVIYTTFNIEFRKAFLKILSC
Histamine H2 receptor, sequence (P25021 whole entry): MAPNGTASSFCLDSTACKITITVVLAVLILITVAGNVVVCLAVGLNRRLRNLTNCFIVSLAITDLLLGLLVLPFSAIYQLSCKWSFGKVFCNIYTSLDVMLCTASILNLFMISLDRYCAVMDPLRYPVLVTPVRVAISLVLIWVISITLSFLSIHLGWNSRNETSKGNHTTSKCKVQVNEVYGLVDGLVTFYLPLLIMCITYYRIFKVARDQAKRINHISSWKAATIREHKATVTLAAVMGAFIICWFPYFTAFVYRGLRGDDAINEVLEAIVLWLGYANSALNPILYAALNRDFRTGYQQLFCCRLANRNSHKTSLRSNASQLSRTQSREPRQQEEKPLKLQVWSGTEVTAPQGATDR
Histamine H1 receptor, sequence (P35367 whole entry): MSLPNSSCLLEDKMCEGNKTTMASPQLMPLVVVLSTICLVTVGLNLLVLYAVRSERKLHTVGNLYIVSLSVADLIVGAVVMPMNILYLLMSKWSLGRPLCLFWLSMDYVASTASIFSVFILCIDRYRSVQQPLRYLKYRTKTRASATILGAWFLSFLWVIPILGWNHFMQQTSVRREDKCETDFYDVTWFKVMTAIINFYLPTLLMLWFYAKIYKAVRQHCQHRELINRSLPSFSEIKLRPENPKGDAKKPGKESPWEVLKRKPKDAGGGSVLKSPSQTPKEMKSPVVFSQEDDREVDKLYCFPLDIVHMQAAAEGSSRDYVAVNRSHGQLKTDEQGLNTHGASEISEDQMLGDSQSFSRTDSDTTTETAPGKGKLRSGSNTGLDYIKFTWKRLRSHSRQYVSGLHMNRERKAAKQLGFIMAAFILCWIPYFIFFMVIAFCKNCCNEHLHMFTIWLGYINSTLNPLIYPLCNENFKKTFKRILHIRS
Vasopressin V2 receptor, sequence (P30518 whole entry): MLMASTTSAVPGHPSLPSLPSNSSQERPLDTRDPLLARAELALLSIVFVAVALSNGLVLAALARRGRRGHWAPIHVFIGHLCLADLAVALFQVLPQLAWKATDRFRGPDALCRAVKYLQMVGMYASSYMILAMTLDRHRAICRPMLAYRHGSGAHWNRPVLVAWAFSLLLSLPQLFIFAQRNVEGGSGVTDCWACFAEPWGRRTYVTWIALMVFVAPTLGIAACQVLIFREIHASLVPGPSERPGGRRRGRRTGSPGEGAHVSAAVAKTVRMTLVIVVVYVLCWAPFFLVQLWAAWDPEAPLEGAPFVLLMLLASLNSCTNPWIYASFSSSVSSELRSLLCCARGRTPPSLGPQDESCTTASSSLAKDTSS
Sodium-dependent serotonin transporter, sequence (P31645 whole entry): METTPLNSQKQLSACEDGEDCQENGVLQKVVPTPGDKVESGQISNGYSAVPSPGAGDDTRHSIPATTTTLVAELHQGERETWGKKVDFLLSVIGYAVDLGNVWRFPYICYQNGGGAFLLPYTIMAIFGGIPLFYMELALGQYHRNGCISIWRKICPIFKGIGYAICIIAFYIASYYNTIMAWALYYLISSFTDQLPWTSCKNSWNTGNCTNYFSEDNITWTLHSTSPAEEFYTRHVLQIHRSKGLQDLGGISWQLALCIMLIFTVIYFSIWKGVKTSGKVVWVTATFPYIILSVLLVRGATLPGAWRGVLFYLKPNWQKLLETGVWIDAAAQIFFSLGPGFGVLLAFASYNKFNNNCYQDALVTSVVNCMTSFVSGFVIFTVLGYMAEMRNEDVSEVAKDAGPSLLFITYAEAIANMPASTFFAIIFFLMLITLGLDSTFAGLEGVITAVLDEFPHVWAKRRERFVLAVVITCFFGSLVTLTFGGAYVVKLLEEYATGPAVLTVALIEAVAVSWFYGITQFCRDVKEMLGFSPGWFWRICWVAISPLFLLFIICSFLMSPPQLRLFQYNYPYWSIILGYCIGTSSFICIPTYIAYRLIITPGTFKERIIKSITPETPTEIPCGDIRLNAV
cGMP-inhibited 3',5'-cyclic phosphodiesterase 3A, sequence (Q14432 whole entry): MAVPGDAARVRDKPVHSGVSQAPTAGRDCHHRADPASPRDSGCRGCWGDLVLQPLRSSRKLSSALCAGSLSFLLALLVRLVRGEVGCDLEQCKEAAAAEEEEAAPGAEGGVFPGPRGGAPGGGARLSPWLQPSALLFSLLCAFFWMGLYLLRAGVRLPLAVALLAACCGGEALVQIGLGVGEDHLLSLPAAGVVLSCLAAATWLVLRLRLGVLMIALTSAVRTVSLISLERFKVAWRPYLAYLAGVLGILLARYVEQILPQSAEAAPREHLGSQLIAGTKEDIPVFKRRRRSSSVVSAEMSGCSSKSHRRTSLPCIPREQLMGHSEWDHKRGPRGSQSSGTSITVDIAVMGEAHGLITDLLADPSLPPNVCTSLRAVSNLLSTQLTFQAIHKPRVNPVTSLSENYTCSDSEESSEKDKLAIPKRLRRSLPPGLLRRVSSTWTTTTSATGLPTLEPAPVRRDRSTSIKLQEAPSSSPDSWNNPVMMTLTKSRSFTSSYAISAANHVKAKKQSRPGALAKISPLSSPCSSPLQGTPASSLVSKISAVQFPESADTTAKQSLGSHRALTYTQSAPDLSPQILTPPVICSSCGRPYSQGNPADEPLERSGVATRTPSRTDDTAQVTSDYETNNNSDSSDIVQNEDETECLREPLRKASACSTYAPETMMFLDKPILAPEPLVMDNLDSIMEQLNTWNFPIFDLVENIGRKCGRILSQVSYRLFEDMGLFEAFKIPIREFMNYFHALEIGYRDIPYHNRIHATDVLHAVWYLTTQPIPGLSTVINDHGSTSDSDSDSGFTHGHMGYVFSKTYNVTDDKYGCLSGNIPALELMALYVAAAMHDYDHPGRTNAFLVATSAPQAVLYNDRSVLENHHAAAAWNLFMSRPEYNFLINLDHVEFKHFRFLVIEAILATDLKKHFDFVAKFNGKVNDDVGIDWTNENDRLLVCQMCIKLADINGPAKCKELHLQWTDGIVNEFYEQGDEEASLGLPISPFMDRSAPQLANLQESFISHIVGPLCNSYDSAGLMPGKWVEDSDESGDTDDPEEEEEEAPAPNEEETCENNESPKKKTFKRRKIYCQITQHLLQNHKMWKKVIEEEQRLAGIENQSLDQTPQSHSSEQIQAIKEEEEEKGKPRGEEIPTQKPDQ
Sodium-dependent noradrenaline transporter, sequence (P23975 whole entry): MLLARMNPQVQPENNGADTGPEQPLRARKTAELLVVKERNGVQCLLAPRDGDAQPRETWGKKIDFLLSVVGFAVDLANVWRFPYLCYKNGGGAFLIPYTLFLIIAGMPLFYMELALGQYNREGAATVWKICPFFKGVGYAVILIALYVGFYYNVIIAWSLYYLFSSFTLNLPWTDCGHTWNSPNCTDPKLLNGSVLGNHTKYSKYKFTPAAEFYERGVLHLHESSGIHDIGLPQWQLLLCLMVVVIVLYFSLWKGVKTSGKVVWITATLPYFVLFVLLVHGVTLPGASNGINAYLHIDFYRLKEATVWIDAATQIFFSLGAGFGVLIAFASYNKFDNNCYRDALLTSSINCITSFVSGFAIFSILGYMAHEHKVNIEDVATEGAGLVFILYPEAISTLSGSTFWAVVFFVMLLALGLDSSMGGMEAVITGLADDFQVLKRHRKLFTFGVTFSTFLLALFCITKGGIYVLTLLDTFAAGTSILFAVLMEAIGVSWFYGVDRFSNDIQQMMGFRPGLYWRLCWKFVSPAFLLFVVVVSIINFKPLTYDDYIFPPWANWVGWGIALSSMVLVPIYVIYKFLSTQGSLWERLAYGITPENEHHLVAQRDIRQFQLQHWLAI

The term AC50 denotes the midpoint of the concentration-response curve, whichever way the signal moves. Read a high AC50 as activity only at high concentration. As to `CCOC(=O)[C@H](CCc1ccccc1)N[C@@H](C)C(=O)N1CCC[C@H]1C(=O)O`, the AC50 in [1] was greater than 30 µM; on Histamine H2 receptor, greater than 10 µM; in assay [2], greater than 30 µM; at Vasopressin V2 receptor, greater than 30 µM.
`CC(N)Cc1ccccc1` (stereo unspecified) [AMPHETAMINE]: the AC50 was greater than 30 µM in [1]; greater than 10 µM on Histamine H2 receptor; greater than 30 µM in assay [2]; greater than 30 µM at Progesterone receptor; greater than 30 µM at Vasopressin V2 receptor.
Consider `CN1CCCC(n2nc(Cc3ccc(Cl)cc3)c3ccccc3c2=O)CC1` (stereo unspecified) [AZELASTINE], for which the AC50 in assay [1] was 1.1 µM; in [3], 3.5 µM; on Progesterone receptor, greater than 30 µM.
Turning to `CC(C)NCC(O)COc1ccc(COCCOC(C)C)cc1` (stereo unspecified) [BISOPROLOL], the AC50 on Histamine H1 receptor was greater than 10 µM; in [3] it was greater than 10 µM; at Histamine H2 receptor, greater than 10 µM; in assay [2], greater than 30 µM; on Vasopressin V2 receptor, greater than 30 µM.
In the case of `CCC[C@@H]1C[C@@H](C(=O)N[C@@H]([C@H]2O[C@H](SC)[C@H](O)[C@@H](O)[C@H]2O)[C@H](C)Cl)N(C)C1` [CLINDAMYCIN], the AC50 is greater than 30 µM in assay [1], greater than 10 µM at Histamine H2 receptor, greater than 30 µM in assay [2] and greater than 30 µM at Vasopressin V2 receptor.
As for `CN(C)CCCN1c2ccccc2CCc2ccc(Cl)cc21` [CLOMIPRAMINE], the results for the AC50 (in [1]; at Histamine H2 receptor; at D(3) dopamine receptor) were 1.4 µM, greater than 30 µM and 0.0393 µM, respectively.
For the compound `CC(=O)OCC(=O)[C@@]1(O)CC[C@H]2[C@@H]3CCC4=CC(=O)CC[C@]4(C)[C@H]3C(=O)C[C@@]21C` [CORTISONE ACETATE], the half-maximal activity concentration (AC50) (in [1]; at Histamine H2 receptor; on Prothrombin) was greater than 30 µM each time.
For `O=C(O)c1cc(-c2ccc(F)cc2F)ccc1O` [DIFLUNISAL], the AC50 at Histamine H2 receptor was greater than 30 µM; in assay [2], greater than 10 µM; at Progesterone receptor, greater than 10 µM; at Vasopressin V2 receptor it was greater than 10 µM.
With `CCC(=O)O[C@H]1[C@H](O[C@@H]2[C@@H](C)[C@H](O[C@H]3C[C@@](C)(OC)[C@@H](O)[C@H](C)O3)[C@@H](C)C(=O)O[C@H](CC)[C@@](C)(O)[C@H](O)[C@@H](C)C(=O)[C@H](C)C[C@@]2(C)O)O[C@H](C)C[C@@H]1N(C)C` [ERYTHROMYCIN PROPIONATE], the AC50 is 29.9 µM in assay [4]; greater than 30 µM in assay [5]; 12.9 µM on D(3) dopamine receptor; greater than 30 µM at Prothrombin; greater than 30 µM in assay [6].
With `C#C[C@]1(O)CC[C@H]2[C@@H]3CCc4cc(O)ccc4[C@H]3CC[C@@]21C` [ETHINYL ESTRADIOL], the half-maximal activity concentration (AC50) in assay [5] is greater than 30 µM; on Histamine H2 receptor, greater than 10 µM; in assay [2], greater than 30 µM; on D(3) dopamine receptor it was greater than 30 µM; at Vasopressin V2 receptor, greater than 30 µM; on Prothrombin it was greater than 30 µM. The same compound returned an AC50 in assay [6] greater than 30 µM.
As to `NC(N)=Nc1nc(CSCCC(N)=NS(N)(=O)=O)cs1` [FAMOTIDINE], the half-maximal activity concentration (AC50) is greater than 30 µM in assay [1], greater than 10 µM on Histamine H2 receptor, greater than 30 µM in [2] and greater than 30 µM on Vasopressin V2 receptor.
For `NS(=O)(=O)c1cc2c(cc1Cl)NCNS2(=O)=O` [HYDROCHLOROTHIAZIDE], the AC50 is greater than 10 µM on Histamine H2 receptor, greater than 30 µM in [2] and greater than 30 µM on Vasopressin V2 receptor.
As to `CC(C)NNC(=O)c1ccncc1` [IPRONIAZID], the AC50 (in assay [1]; at Progesterone receptor) was greater than 30 µM each time.
Consider `NC[C@H]1O[C@H](O[C@H]2[C@H](O)[C@@H](O[C@H]3O[C@H](CO)[C@@H](O)[C@H](N)[C@H]3O)[C@H](N)C[C@@H]2N)[C@H](O)[C@@H](O)[C@@H]1O` [KANAMYCIN], for which the AC50 in assay [1] was greater than 30 µM; on Histamine H2 receptor, greater than 30 µM; in assay [2] it was greater than 10 µM; at Progesterone receptor, greater than 10 µM; at Vasopressin V2 receptor it was greater than 10 µM.
In the case of `C[C@H]1C[C@@H]2[C@H]([C@@H](O)C[C@@]3(C)[C@H]2CC[C@]3(O)C(=O)CO)[C@@]2(C)C=CC(=O)C=C12` [METHYLPREDNISOLONE], the AC50 on Histamine H2 receptor was greater than 30 µM; in [2], greater than 10 µM; at Progesterone receptor, 1.3 µM; on Vasopressin V2 receptor it was greater than 10 µM.
For `CCN(CC)CCNC(=O)c1cc(Cl)c(N)cc1OC` [METOCLOPRAMIDE], the AC50 in assay [1] is greater than 30 µM; on Histamine H2 receptor, greater than 10 µM; in assay [2], greater than 30 µM; on Vasopressin V2 receptor, greater than 30 µM.
`CC(C)(C(=O)c1cccnc1)c1cccnc1` [METYRAPONE]: the AC50 (on Histamine H2 receptor; in [2]; on Progesterone receptor; on Vasopressin V2 receptor) was greater than 10 µM throughout.
Consider `Cc1cccc(C)c1OCC(C)N` (stereo unspecified) [MEXILETINE], for which the AC50 (in [1]; on Histamine H2 receptor; in assay [2]; on Progesterone receptor; on Vasopressin V2 receptor) was greater than 30 µM each time.
Turning to `CCc1nn(CCCN2CCN(c3cccc(Cl)c3)CC2)c(=O)n1CCOc1ccccc1` [NEFAZODONE], the AC50 at Histamine H1 receptor is 0.41 µM; in [2], greater than 30 µM; on Vasopressin V2 receptor, greater than 30 µM.
As for `COC(=O)C1=C(C)NC(C)=C(C(=O)OCC(C)C)C1c1ccccc1[N+](=O)[O-]` (stereo unspecified) [NISOLDIPINE], the AC50 in assay [1] was 11 µM; at Histamine H2 receptor, greater than 30 µM; in assay [2] it was greater than 10 µM; on Progesterone receptor, greater than 30 µM; on Vasopressin V2 receptor it was greater than 10 µM.
Turning to `NC1=NC(=O)C(c2ccccc2)O1` (stereo unspecified) [PEMOLINE], the concentration at half-maximal activity (AC50) on Histamine H2 receptor is greater than 10 µM; in assay [2] it was greater than 30 µM; on Vasopressin V2 receptor, greater than 30 µM.
With `CC[C@H](C)C(=O)O[C@H]1C[C@H](O)C=C2C=C[C@H](C)[C@H](CC[C@@H](O)C[C@@H](O)CC(=O)O)[C@H]21` [PRAVASTATIN], the concentration at half-maximal activity (AC50) in assay [1] was greater than 30 µM; at Histamine H2 receptor it was greater than 10 µM; at Progesterone receptor, greater than 30 µM.
On to `Cc1cc2c(cc1CC(=O)c1sccc1S(=O)(=O)Nc1onc(C)c1Cl)OCO2` [SITAXENTAN], for which the AC50 (in assay [4]; in assay [5]; at D(3) dopamine receptor; at Prothrombin; in assay [6]) was greater than 30 µM each time.
Turning to `CNC(=O)c1cc(Oc2ccc(NC(=O)Nc3ccc(Cl)c(C(F)(F)F)c3)cc2)ccn1` [SORAFENIB], the AC50 in assay [1] is 15 µM; on Histamine H1 receptor it was greater than 30 µM; at Histamine H2 receptor it was greater than 30 µM; in assay [2], greater than 30 µM; on Progesterone receptor, greater than 30 µM; at Vasopressin V2 receptor, greater than 30 µM.
Consider `NC[C@H]1CC[C@H](C(=O)O)CC1` [TRANEXAMIC ACID], for which the AC50 is greater than 30 µM at Histamine H2 receptor, greater than 10 µM in assay [2], greater than 10 µM on Progesterone receptor and greater than 10 µM on Vasopressin V2 receptor.
For the compound `OCc1cc([C@@H](O)CNCCCCCCOCCOCc2c(Cl)cccc2Cl)ccc1O` [VILANTEROL], the AC50 on Histamine H1 receptor is greater than 30 µM; in assay [3] it was 2.8 µM; on Progesterone receptor, greater than 30 µM.
